Measurements published in patent US20250221988A1 (Cullgen (Shanghai), Inc., priority 2022, published 2025).
pIC50: −log10 of the molar value. Read-outs that look alike come from different tables or passages of the source. One block for each molecule: values may come before it.

Key:
NCI-H1155 cells = assay: Cell viability assay in NCI-H1155 cells; format: cell-based; conditions: Homo sapiens, read-out: NCI-H115 IC50
Procedure: (§1) Cell Culture: RS4;11, MV4;11, MOLM-13 and other cells were cultured at 37° C. with 5% CO2 in RPMI 1640 or DMEM Medium supplemented with 10% fetal bovine serum. Cells were authenticated using the short tandem repeat (STR) assays. Mycoplasma test results were negative.
(§2) Cell viability assays: Cells were seeded at a density of 5000 cells per well in 96-well assay plates and treated with test compounds following a 8-point or 12-point 3-fold serial dilution. Three days later, cell viability was determined using the CellTiter-Glo assay kit according to the manufacturer's instructions. The dose-response curves were determined and IC50 values were calculated using the GraphPad Prism software following a nonlinear regression (least squares fit) method.
(§3) The compounds were tested in HEL, 22RV1, NCI-H82 or NCI-H1155 cells.

tested cell lines = conditions: Matyskiela, Lu et al. 2016; cited from earlier work
GSPT1 [1] = target: T1, GSPT1 (Homo sapiens, UniProt P15170+Q96SW2); design: MOLM-13 cells were treated at indicated concentrations with compounds GS-729, GS-731, GS-697, and GS-788 for 16 hours prior to immunoblotting; endogenous in cells; host or cells: MOLM-13; conditions: Matyskiela, Lu et al. 2016; cited from earlier work
T1 sequence (P15170 whole entry): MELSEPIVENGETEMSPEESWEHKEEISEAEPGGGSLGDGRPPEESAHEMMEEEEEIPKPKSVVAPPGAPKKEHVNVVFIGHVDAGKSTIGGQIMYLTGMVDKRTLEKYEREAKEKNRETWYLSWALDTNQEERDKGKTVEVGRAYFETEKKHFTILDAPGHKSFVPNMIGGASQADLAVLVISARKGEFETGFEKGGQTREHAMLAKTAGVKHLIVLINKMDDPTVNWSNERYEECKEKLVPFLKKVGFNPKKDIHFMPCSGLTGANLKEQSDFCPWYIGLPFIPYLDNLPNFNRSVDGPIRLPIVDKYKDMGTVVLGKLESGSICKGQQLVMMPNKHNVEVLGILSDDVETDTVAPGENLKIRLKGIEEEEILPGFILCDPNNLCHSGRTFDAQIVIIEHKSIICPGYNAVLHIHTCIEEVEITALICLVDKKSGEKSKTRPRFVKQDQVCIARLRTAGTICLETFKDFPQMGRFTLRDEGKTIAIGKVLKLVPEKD
T1 sequence (Q96SW2 whole entry): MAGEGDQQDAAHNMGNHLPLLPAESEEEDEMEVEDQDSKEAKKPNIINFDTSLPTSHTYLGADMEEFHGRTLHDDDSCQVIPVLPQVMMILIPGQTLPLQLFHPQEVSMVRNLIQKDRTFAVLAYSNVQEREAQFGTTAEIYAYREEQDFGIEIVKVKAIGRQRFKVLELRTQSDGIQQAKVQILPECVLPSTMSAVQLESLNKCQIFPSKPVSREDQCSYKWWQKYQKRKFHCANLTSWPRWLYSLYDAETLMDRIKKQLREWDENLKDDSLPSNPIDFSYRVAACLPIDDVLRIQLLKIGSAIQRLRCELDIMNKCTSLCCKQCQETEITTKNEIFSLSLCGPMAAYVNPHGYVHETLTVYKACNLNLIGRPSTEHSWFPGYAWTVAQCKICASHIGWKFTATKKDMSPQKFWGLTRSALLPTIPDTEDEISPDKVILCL
T1 sequence (Q16531 whole entry partner): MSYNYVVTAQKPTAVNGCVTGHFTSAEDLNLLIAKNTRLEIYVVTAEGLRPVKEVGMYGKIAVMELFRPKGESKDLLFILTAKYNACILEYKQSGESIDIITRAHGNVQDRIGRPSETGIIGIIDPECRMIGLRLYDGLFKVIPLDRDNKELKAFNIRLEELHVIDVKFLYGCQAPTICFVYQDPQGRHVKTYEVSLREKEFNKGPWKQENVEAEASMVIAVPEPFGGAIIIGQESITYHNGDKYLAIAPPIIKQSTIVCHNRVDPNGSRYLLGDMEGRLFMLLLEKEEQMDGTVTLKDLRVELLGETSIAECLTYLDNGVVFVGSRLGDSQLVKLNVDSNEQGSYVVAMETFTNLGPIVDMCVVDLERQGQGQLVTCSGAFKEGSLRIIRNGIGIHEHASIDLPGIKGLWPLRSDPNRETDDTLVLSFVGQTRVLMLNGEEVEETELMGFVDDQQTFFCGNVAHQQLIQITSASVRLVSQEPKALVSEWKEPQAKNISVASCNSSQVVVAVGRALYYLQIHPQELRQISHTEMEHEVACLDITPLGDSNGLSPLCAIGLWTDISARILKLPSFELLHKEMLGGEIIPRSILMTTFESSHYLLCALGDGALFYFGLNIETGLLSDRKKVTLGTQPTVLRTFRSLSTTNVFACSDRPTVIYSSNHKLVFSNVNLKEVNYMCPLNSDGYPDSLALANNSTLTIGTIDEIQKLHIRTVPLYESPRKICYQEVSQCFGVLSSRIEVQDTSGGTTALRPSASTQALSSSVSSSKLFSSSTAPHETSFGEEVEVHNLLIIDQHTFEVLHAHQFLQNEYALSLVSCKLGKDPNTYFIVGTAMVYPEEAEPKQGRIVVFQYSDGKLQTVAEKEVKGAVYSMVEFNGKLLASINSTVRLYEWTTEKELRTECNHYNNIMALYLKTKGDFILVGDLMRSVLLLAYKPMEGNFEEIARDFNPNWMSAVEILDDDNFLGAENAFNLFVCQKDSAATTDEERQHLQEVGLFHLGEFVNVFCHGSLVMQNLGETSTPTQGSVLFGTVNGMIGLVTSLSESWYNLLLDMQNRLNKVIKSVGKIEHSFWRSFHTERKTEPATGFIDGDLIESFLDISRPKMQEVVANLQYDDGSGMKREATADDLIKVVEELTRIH

MV4;11 cells = assay: Cell viability assay (CellTiter-Glo) in MV4;11 cells; format: cell-based; conditions: MV4;11 cells, three days, read-out: MV4; for pIC50: Homo sapiens, MV4-11, 72 h, compound alone, 11 IC50; for IC50: with 10 nM gilteritinib, 11 IC50 (nM) + 10 nM Gil
Outline: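 5000 cells/well in RPMI 1640 or DMEM with 10% FBS, treated with 8- or 12-point 3-fold compound dilutions, with or without gilteritinib (10 nM for MV4;11, 20 nM for MOLM-13). Viability by CellTiter-Glo after three days; IC50 by nonlinear least-squares regression.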

MOLM-13 cells = assay: Cell viability assay (CellTiter-Glo) in MOLM-13 cells; format: cell-based; conditions: MOLM-13 cells, three days; for pIC50: Homo sapiens, 72 h, compound alone, read-out: MOLM-13 IC50; for IC50: with gilteritinib, read-out: MOLM-13 IC50 (nM) + 10 nM Gil
GSPT1 [2] = target: T1, GSPT1; assay: Immunoblotting of GSPT1 in MOLM-13 cells; format: cell-based; design: endogenous in cells; host or cells: MOLM-13; conditions: indicated concentrations, 16 hours
Procedure: as §1
Antibodies and reagents: Rabbit anti-FLT3 antibody (3462S) was purchased from Cell Signaling Technology. Rabbit anti-GSPT1 antibody (ab126090) was purchased from Abeam. HRP-conjugated anti-α-tubulin antibody was produced in house. Media and other cell culture reagents were purchased from Thermo Fisher. The CellTiter-Glo Luminescent Assay kit was purchased from Promega.
Immunoblotting: Cultured cells were washed with cold PBS once and lysed in cold RIPA buffer supplemented with protease inhibitors and phosphatase inhibitors (Beyotime Biotechnology). The solutions were then incubated at 4° C. for 30 minutes with gentle agitation to fully lyse cells. Cell lysates were centrifuged at 13,000 rpm for 10 minutes at 4° C. and pellets were discarded. Total protein concentrations in the lysates were determined by BCA assays (Beyotime Biotechnology). Cell lysates were mixed with Laemmli loading buffer to 1× and heated at 99° C. for 5 min. Proteins were resolved on SDS-PAGE and visualized by chemiluminescence. Images were taken by a ChemiDoc MP Imaging system (Bio-Rad). Protein bands were quantitated using the accompanied software provided by Bio-Rad.

HEL cells = assay: Cell viability assay in HEL cells; format: cell-based; conditions: Homo sapiens
Procedure: as §1, §2, §3

22RV1 cells = assay: Cell viability assay in 22RV1 cells; format: cell-based; conditions: Homo sapiens
Procedure: as §1, §2, §3

NCI-H82 cells = assay: Cell viability assay in NCI-H82 cells; format: cell-based; conditions: Homo sapiens
Procedure: as §1, §2, §3

pIC50 (NCI-H1155 cells): 7.00 to 8.00
SMILES: CNc1cccc(-c2cn([C@H]3C[C@H](CNc4ccc5c(c4)CN(C4CCC(=O)NC4=O)C5=O)C3)nc2C2CC2)n1 (relative stereo) [GS-811, 3-(5-(((Trans-3-(3-cyclopropyl-4-(6-(methylamino)pyridin-2-yl)-1H-pyrazol-1-yl)cyclobutyl)methyl)amino)-1-oxoisoindolin-2-yl)piperidine-2,6-dione]

SMILES: Cc1ccc(NC(=O)NCc2ccc3c(c2)CN(C2CCC(=O)NC2=O)C3=O)cc1Cl (centres unmarked) [CC-885]
toxicity in tested cell lines (tested cell lines): induced significant toxicity in the vast majority of tested cell lines
cereblon-dependent degradation of GSPT1 (GSPT1 [1]): led to cereblon-dependent degradation of GSPT1

pIC50 (MV4;11 cells): > 8.00
IC50 (MV4;11 cells): < 10 nM
pIC50 (MOLM-13 cells): > 8.00
IC50 (MOLM-13 cells): < 10 nM
small molecule-mediated targeted degradation of GSPT1 (GSPT1 [2]): targeted degradation of GSPT1
SMILES: O=C1CCC(N2C(=O)c3ccc(NC[C@H]4C[C@H](n5cc(-c6ncc(F)c7cccnc67)c(C6CC6)n5)C4)cc3C2=O)C(=O)N1 (stereo partly drawn) [GS-697, 5-(((Trans-3-(3-cyclopropyl-4-(5-fluoro-1,7-naphthyridin-8-yl)-1H-pyrazol-1-yl)cyclobutyl)methyl)amino)-2-(2,6-dioxopiperidin-3-yl)isoindoline-1,3-dione]

SMILES: Cn1ncc2ccc(-c3cn([C@H]4C[C@H](CNc5ccc6c(c5)C(=O)N(C5CCC(=O)NC5=O)C6=O)C4)nc3C3CC3)nc21 (stereo partly drawn) [GS-729, 5-(((Trans-3-(3-cyclopropyl-4-(1-methyl-1H-pyrazolo[3,4-b]pyridin-6-yl)-1H-pyrazol-1-yl)cyclobutyl)methyl)amino)-2-(2,6-dioxopiperidin-3-yl)isoindoline-1,3-dione]
pIC50 (MV4;11 cells): 7.00 to 8.00
IC50 (MV4;11 cells): < 10 nM
pIC50 (MOLM-13 cells): 7.00 to 8.00
IC50 (MOLM-13 cells): < 10 nM
small molecule-mediated targeted degradation of GSPT1 (GSPT1 [2]): targeted degradation of GSPT1

SMILES: Cc1nc(-c2cn([C@H]3C[C@H](CNc4ccc5c(c4)CN(C4CCC(=O)NC4=O)C5=O)C3)nc2C2CC2)ccc1F (stereo partly drawn) [GS-731, 3-(5-(((Trans-3-(3-cyclopropyl-4-(5-fluoro-6-methylpyridin-2-yl)-1H-pyrazol-1-yl)cyclobutyl)methyl)amino)-1-oxoisoindolin-2-yl)piperidine-2,6-dione]
pIC50 (MV4;11 cells): > 8.00
IC50 (MV4;11 cells): < 10 nM
pIC50 (MOLM-13 cells): 7.00 to 8.00
IC50 (MOLM-13 cells): < 10 nM
small molecule-mediated targeted degradation of GSPT1 (GSPT1 [2]): targeted degradation of GSPT1

SMILES: O=C1CCC(N2Cc3cc(NC[C@H]4C[C@H](n5cc(-c6ncc(F)c7cccnc67)c(C6CC6)n5)C4)ccc3C2=O)C(=O)N1 (stereo partly drawn) [GS-788, 3-(5-(((Trans-3-(3-cyclopropyl-4-(5-fluoro-1,7-naphthyridin-8-yl)-1H-pyrazol-1-yl)cyclobutyl)methyl)amino)-1-oxoisoindolin-2-yl)piperidine-2,6-dione]
pIC50 (MV4;11 cells): > 8.00
IC50 (MV4;11 cells): < 10 nM
pIC50 (MOLM-13 cells): > 8.00
IC50 (MOLM-13 cells): < 10 nM
small molecule-mediated targeted degradation of GSPT1 (GSPT1 [2]): targeted degradation of GSPT1

pIC50 (MOLM-13 cells): > 8.00
pIC50 (22RV1 cells): > 8.00
pIC50 (NCI-H82 cells): > 8.00
SMILES: Cc1nc(-c2cn([C@H]3C[C@H](CNc4ccc5c(c4)CN([C@H]4CCC(=O)NC4=O)C5=O)C3)nc2C2CC2)ccc1F [GS-800, (S)-3-(5-(((trans-3-(3-cyclopropyl-4-(5-fluoro-6-methylpyridin-2-yl)-1H-pyrazol-1-yl)cyclobutyl)methyl)amino)-1-oxoisoindolin-2-yl)piperidine-2,6-dione]
pIC50 (HEL cells): 7.00 to 8.00

SMILES: O=C1CCC(N2Cc3cc(NC[C@H]4C[C@H](n5cc(-c6ccc(F)c(C(F)F)n6)c(C6CC6)n5)C4)ccc3C2=O)C(=O)N1 (stereo partly drawn) [GS-802, 3-(5-(((Trans-3-(3-cyclopropyl-4-(6-(difluoromethyl)-5-fluoropyridin-2-yl)-1H-pyrazol-1-yl)cyclobutyl)methyl)amino)-1-oxoisoindolin-2-yl)piperidine-2,6-dione]
pIC50 (MOLM-13 cells): 7.00 to 8.00
pIC50 (NCI-H1155 cells): 7.00 to 8.00
small molecule-mediated targeted degradation of GSPT1 (GSPT1 [2]): targeted degradation of GSPT1

SMILES: O=C1CCC(N2Cc3cc(NC[C@H]4C[C@H](n5cc(-c6ccc(F)c(C(F)(F)F)n6)c(C6CC6)n5)C4)ccc3C2=O)C(=O)N1 (stereo partly drawn) [GS-803, 3-(5-(((Trans-3-(3-cyclopropyl-4-(5-fluoro-6-(trifluoromethyl)pyridin-2-yl)-1H-pyrazol-1-yl)cyclobutyl)methyl)amino)-1-oxoisoindolin-2-yl)piperidine-2,6-dione]
pIC50 (MOLM-13 cells): > 8.00
pIC50 (NCI-H1155 cells): > 8.00
small molecule-mediated targeted degradation of GSPT1 (GSPT1 [2]): targeted degradation of GSPT1

SMILES: Cc1ccc(Cl)c(-c2cn([C@H]3C[C@H](CNc4ccc5c(c4)CN(C4CCC(=O)NC4=O)C5=O)C3)nc2C2CC2)n1 (stereo partly drawn) [GS-805, 3-(5-(((Trans-3-(4-(3-chloro-6-methylpyridin-2-yl)-3-cyclopropyl-1H-pyrazol-1-yl)cyclobutyl)methyl)amino)-1-oxoisoindolin-2-yl)piperidine-2,6-dione]
pIC50 (HEL cells): > 8.00

SMILES: Cc1ccc(F)c(-c2cn([C@H]3C[C@H](CNc4ccc5c(c4)CN(C4CCC(=O)NC4=O)C5=O)C3)nc2C2CC2)n1 (stereo partly drawn) [GS-807, 3-(5-(((Trans-3-(3-cyclopropyl-4-(3-fluoro-6-methylpyridin-2-yl)-1H-pyrazol-1-yl)cyclobutyl)methyl)amino)-1-oxoisoindolin-2-yl)piperidine-2,6-dione]
pIC50 (HEL cells): > 8.00
pIC50 (22RV1 cells): > 8.00
pIC50 (NCI-H82 cells): > 8.00

SMILES: CNc1nc(-c2cn([C@H]3C[C@H](CNc4ccc5c(c4)CN(C4CCC(=O)NC4=O)C5=O)C3)nc2C2CC2)ccc1F (stereo partly drawn) [GS-808, 3-(5-(((Trans-3-(3-cyclopropyl-4-(5-fluoro-6-(methylamino)pyridin-2-yl)-1H-pyrazol-1-yl)cyclobutyl)methyl)amino)-1-oxoisoindolin-2-yl)piperidine-2,6-dione]
pIC50 (NCI-H82 cells): > 8.00

pIC50 (NCI-H1155 cells): > 8.00
SMILES: Cc1nc(-c2cn([C@H]3C[C@H](CNc4ccc5c(c4)CN(C4CCC(=O)NC4=O)C5=O)C3)nc2C2CC2)c(F)cc1F (stereo partly drawn) [GS-809, 3-(5-(((trans-3-(3-cyclopropyl-4-(3,5-difluoro-6-methylpyridin-2-yl)-1H-pyrazol-1-yl)cyclobutyl)methyl)amino)-1-oxoisoindolin-2-yl)piperidine-2,6-dione]

pIC50 (NCI-H1155 cells): 7.00 to 8.00
SMILES: Nc1cccc(-c2cn([C@H]3C[C@H](CNc4ccc5c(c4)CN(C4CCC(=O)NC4=O)C5=O)C3)nc2C2CC2)n1 (stereo partly drawn) [GS-810, 3-(5-(((Trans-3-(4-(6-aminopyridin-2-yl)-3-cyclopropyl-1H-pyrazol-1-yl)cyclobutyl)methyl)amino)-1-oxoisoindolin-2-yl)piperidine-2,6-dione]

pIC50 (NCI-H82 cells): > 8.00
SMILES: Cc1nc(-c2cn([C@H]3C[C@H](CNc4ccc5c(c4)CN(C4CCC(=O)NC4=O)C5=O)C3)nc2C2CC2)c(Cl)cc1F (some centres unmarked) [GS-812]
